Results: patent US20230271941A1, “COMPOUNDS AND COMPOSITIONS FOR TREATING CONDITIONS ASSOCIATED WITH STING ACTIVITY” (IFM Due, Inc., priority 2020, published 2023)

Biological target: T1, hSTING (Homo sapiens, UniProt Q86WV6, G230A/H232R/R293Q/R71H)
T1 construct: host or cells: THP1-Dual KO-IFNAR2 cells
Assay: STING reporter assay: THP1-Dual KO-IFNAR2 cells stimulated with 2′3′cGAMP, luciferase reporter activity
Assay type: cell-based
Conditions: 15 μM 2′3′cGAMP transfected with Lipofectamine 2000, 24 h, luciferase reporter (QUANTI-Luc)
Method: STING pathway activation by the compounds described herein was measured using THP1-Dual™ cells (KO-IFNAR2).
THP1-Dual™ KO-IFNAR2 Cells (obtained from invivogen) were maintained in RPMI, 10% FCS, 5 ml P/S, 2 mM L-glut, 10 mM Hepes, and 1 mM sodium pyruvate. Compounds were spotted in empty 384 well tissue culture plates (Greiner 781182) by Echo for a final concentration of 0.0017-100 μM. Cells were plated into the TC plates at 40 μL per well, 2×10E6 cells/mL. For activation with STING ligand, 2′3′cGAMP (MW 718.38, obtained from Invivogen), was prepared in Optimem media.
The following solutions were prepared for each 1×384 plate: • Solution A: 2 mL Optimem with one of the following stimuli: • 60 μL of 10 mM 2′3′cGAMP→150 μM stock • Solution B: 2 mL Optimem with 60 μL Lipofectamine 2000→Incubate 5 min at RT
2 mL of solution A and 2 ml Solution B was mixed and incubated for 20 min at room temperature (RT). 20 μL of transfection solution (A+B) was added on top of the plated cells, with a final 2′3′cGAMP concentration of 15 μM. The plates were then centrifuged immediately at 340 g for 1 minute, after which they were incubated at 37° C., 5% CO2, >98% humidity for 24 h. Luciferase reporter activity was then measured. EC50 values were calculated by using standard methods known in the art.
Luciferase reporter assay: 10 μL of supernatant from the assay was transferred to white 384-plate with flat bottom and squared wells. One pouch of QUANTI-Luc™ Plus was dissolved in 25 mL of water. 100 μL of QLC Stabilizer per 25 mL of QUANTI-Luc™Plus solution was added. 50 μL of QUANTI-Luc™ Plus/QLC solution per well was then added. Luminescence was measured on a Platereader (e.g., Spectramax I3X (Molecular Devices GF3637001)).
Luciferase reporter activity was then measured. EC50 values were calculated by using standard methods known in the art.

T1 sequence (Q86WV6 whole entry R71H/G230A/H232R/R293Q): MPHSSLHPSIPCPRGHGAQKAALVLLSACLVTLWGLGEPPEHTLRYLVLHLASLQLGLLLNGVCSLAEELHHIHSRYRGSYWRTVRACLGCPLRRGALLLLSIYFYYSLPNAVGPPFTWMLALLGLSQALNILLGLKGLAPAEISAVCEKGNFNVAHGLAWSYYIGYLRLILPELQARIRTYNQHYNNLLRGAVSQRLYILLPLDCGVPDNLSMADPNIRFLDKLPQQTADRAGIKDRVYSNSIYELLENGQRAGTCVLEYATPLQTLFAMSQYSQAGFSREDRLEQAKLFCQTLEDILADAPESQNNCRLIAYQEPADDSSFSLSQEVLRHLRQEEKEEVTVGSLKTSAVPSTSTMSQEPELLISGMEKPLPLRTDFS

Row | EC50 [nM] | SMILES
1 | 5000 to 100000 | CC(C)(O)CCc1ncc(-n2cc(C(=O)Nc3c[nH]c4cc(F)c(F)cc34)nn2)cc1F [Compound 179, N-(5,6-difluoro-1H-indol-3-yl)-1-[5-fluoro-6-(3-hydroxy-3-methylbutyl)pyridin-3-yl]-1H-1,2,3-triazole-4-carboxamide]
2 | 1000 to 5000 | O=C(Nc1c[nH]c2cc(F)c(F)cc12)c1csc(-c2ccccc2)n1 [Compound 111, N-(5,6-difluoro-1H-indol-3-yl)-2-phenyl-1,3-thiazole-4-carboxamide]
3 | 200 to 1000 | O=C(Nc1c[nH]c2cc(F)c(F)cc12)c1cc(-c2ccccc2)[nH]n1 [Compound 175, N-(5,6-difluoro-1H-indol-3-yl)-5-phenyl-1H-pyrazole-3-carboxamide]
4 | 200 to 1000 | CC(C)n1cc(-c2ccc3[nH]cc(NC(=O)c4cn(-c5ccc(C(F)(F)F)cc5)cn4)c3c2)cn1 [Compound 139, N-(5-(1-isopropyl-1H-pyrazol-4-yl)-1H-indol-3-yl)-1-(4-(trifluoromethyl)phenyl)-1H-imidazole-4-carboxamide]
5 | 200 to 1000 | O=C(Nc1c[nH]c2cc(F)c(F)cc12)c1cc(Cc2ccc(C(F)(F)F)cc2)on1 [Compound 153, N-(5,6-difluoro-1H-indol-3-yl)-5-(4-(trifluoromethyl)benzyl)isoxazole-3-carboxamide]
6 | 40 to 200 | O=C(Nc1c[nH]c2ccc(Oc3ccccc3)cc12)c1cnn(Cc2ccc(C(F)(F)F)cc2)c1 [Compound 154, N-(5-phenoxy-1H-indol-3-yl)-1-(4-(trifluoromethyl)benzyl)-1H-pyrazole-4-carboxamide]
7 | 1000 to 5000 | O=C(Nc1c[nH]c2ccccc12)c1cn(Cc2ccc(C(F)(F)F)cn2)cn1 [Compound 130, N-(1H-indol-3-yl)-1-((5-(trifluoromethyl)pyridin-2-yl)methyl)-1H-imidazole-4-carboxamide]
8 | 1000 to 5000 | O=C(Nc1c[nH]c2cc(F)c(F)cc12)c1csc(-c2ccc(OC(F)(F)F)cc2)n1 [Compound 177, N-(5,6-difluoro-1H-indol-3-yl)-2-(4-(trifluoromethoxy)phenyl)thiazole-4-carboxamide]
9 | 200 to 1000 | CC(C)n1cc(-c2ccc3[nH]cc(NC(=O)c4ccn(Cc5ccc(C(F)(F)F)cc5)n4)c3c2)cn1 [Compound 133, N-(5-(1-isopropyl-1H-pyrazol-4-yl)-1H-indol-3-yl)-1-(4-(trifluoromethyl)benzyl)-1H-pyrazole-3-carboxamide]
10 | 40 to 200 | Cn1nc(C(=O)Nc2c[nH]c3cc(F)c(Cl)cc23)cc1Cc1ccc(C(F)(F)F)cc1 [Compound 162, N-(5-chloro-6-fluoro-1H-indol-3-yl)-1-methyl-5-(4-(trifluoromethyl)benzyl)-1H-pyrazole-3-carboxamide]
11 | 200 to 1000 | O=C(Nc1c[nH]c2ccccc12)c1ncc(-c2ccc(C(F)(F)F)cc2)[nH]1 [Compound 129, N-(1H-indol-3-yl)-5-(4-(trifluoromethyl)phenyl)-1H-imidazole-2-carboxamide]
12 | 40 to 200 | O=C(Nc1c[nH]c2cc(F)c(F)cc12)c1cc(CCc2ccc(C(F)(F)F)cc2)no1 [Compound 150, N-(5,6-difluoro-1H-indol-3-yl)-3-(4-(trifluoromethyl)phenethyl)isoxazole-5-carboxamide]
13 | 200 to 1000 | Cc1cc(-n2cc(C(=O)Nc3c[nH]c4cc(F)c(F)cc34)nn2)cnc1OCC(F)(F)F [Compound 165, N-(5,6-difluoro-1H-indol-3-yl)-1-(5-methyl-6-(2,2,2-trifluoroethoxy)pyridin-3-yl)-1H-1,2,3-triazole-4-carboxamide]
14 | 40 to 200 | O=C(Nc1c[nH]c2cc(F)c(F)cc12)c1cc(CC2CCN(CC(F)(F)F)CC2)no1 [Compound 155, N-(5,6-difluoro-1H-indol-3-yl)-3-((1-(2,2,2-trifluoroethyl)piperidin-4-yl)methyl)isoxazole-5-carboxamide]
15 | 1000 to 5000 | O=C(Nc1c[nH]c2ccccc12)c1cncn1Cc1ccc(C(F)(F)F)c(Cl)c1 [Compound 132, 1-(3-chloro-4-(trifluoromethyl)benzyl)-N-(1H-indol-3-yl)-1H-imidazole-5-carboxamide]
16 | 200 to 1000 | CC(C)n1cc(-c2cc(F)c3[nH]cc(NC(=O)c4cnn(Cc5ccc(C(F)(F)F)cc5)c4)c3c2)cn1 [Compound 146, N-(7-fluoro-5-(1-isopropyl-1H-pyrazol-4-yl)-1H-indol-3-yl)-1-(4-(trifluoromethyl)benzyl)-1H-pyrazole-4-carboxamide]
17 | 5000 to 100000 | O=C(Nc1c[nH]c2cc(F)c(F)cc12)c1ccn(CCOc2cccnc2)n1 [Compound 147, N-(5,6-difluoro-1H-indol-3-yl)-1-(2-(pyridin-3-yloxy)ethyl)-1H-pyrazole-3-carboxamide]
18 | 200 to 1000 | O=C(Nc1c[nH]c2cc(F)c(Cl)cc12)c1cc(Cc2ccc(C(F)(F)F)cc2)n(C(F)F)n1 [Compound 166, N-(5-chloro-6-fluoro-1H-indol-3-yl)-1-(difluoromethyl)-5-(4-(trifluoromethyl)benzyl)-1H-pyrazole-3-carboxamide]
19 | 5000 to 100000 | O=C(Nc1c[nH]c2cc(F)c(F)cc12)c1cnn(CCOc2cccnc2)c1 [Compound 124, N-(5,6-difluoro-1H-indol-3-yl)-1-(2-(pyridin-3-yloxy)ethyl)-1H-pyrazole-4-carboxamide]
20 | 5000 to 100000 | O=C(Nc1c[nH]c2cc(F)c(F)cc12)c1ccnn1CCOc1cccnc1 [Compound 127, N-(5,6-difluoro-1H-indol-3-yl)-1-(2-(pyridin-3-yloxy)ethyl)-1H-pyrazole-5-carboxamide]
21 | 200 to 1000 | O=C(Nc1c[nH]c2ccc(Cl)cc12)c1cn(-c2cnc(OCC(F)(F)F)c(F)c2)nn1 [Compound 159, N-(5-chloro-1H-indol-3-yl)-1-(5-fluoro-6-(2,2,2-trifluoroethoxy)pyridin-3-yl)-1H-1,2,3-triazole-4-carboxamide]

Row | SMILES | EC50 [nM]
22 | O=C(Nc1c[nH]c2cc(Cl)c(F)cc12)c1cnn(Cc2ccc(C(F)(F)F)cc2)c1 [Compound 107, N-(6-chloro-5-fluoro-1H-indol-3-yl)-1-(4-(trifluoromethyl)benzyl)-1H-pyrazole-4-carboxamide] | 200 to 1000
23 | CC(c1ccc(C(F)(F)F)cc1)n1cc(C(=O)Nc2c[nH]c3cc(F)c(F)cc23)cn1 (single isomer, unassigned) [Compound 120, (R or S)-N-(5,6-difluoro-1H-indol-3-yl)-1-(1-(4-(trifluoromethyl)phenyl)ethyl)-1H-pyrazole-4-carboxamide] | 200 to 1000
24 | Cc1cncc2c(NC(=O)c3cnn(Cc4ccc(C(F)(F)F)cc4)c3)c[nH]c12 [Compound 125, N-(7-methyl-1H-pyrrolo[3,2-c]pyridin-3-yl)-1-(4-(trifluoromethyl)benzyl)-1H-pyrazole-4-carboxamide] | 1000 to 5000
25 | O=C(Nc1c[nH]c2ccc(F)cc12)c1cnn(Cc2ccc(C(F)(F)F)cc2)c1 [Compound 115, N-(5-fluoro-1H-indol-3-yl)-1-(4-(trifluoromethyl)benzyl)-1H-pyrazole-4-carboxamide] | 200 to 1000
26 | Cc1cc(C(=O)Nc2c[nH]c3cc(F)c(F)cc23)nn1C1CCCCC1 [Compound 140, 1-cyclohexyl-N-(5,6-difluoro-1H-indol-3-yl)-5-methyl-1H-pyrazole-3-carboxamide] | 5000 to 100000
27 | O=C(Nc1c[nH]c2cc(F)c(Cl)cc12)c1cn(Cc2ccc(C(F)(F)F)cc2)nn1 [Compound 168, N-(5-chloro-6-fluoro-1H-indol-3-yl)-1-(4-(trifluoromethyl)benzyl)-1H-1,2,3-triazole-4-carboxamide] | 200 to 1000
28 | O=C(Nc1c[nH]c2cc(F)c(F)cc12)c1cn(Cc2ccc(C(F)(F)F)cc2)nn1 [Compound 105, N-(5,6-difluoro-1H-indol-3-yl)-1-(4-(trifluoromethyl)benzyl)-1H-1,2,3-triazole-4-carboxamide] | 200 to 1000
29 | Cc1cc(C(=O)Nc2c[nH]c3cc(F)c(F)cc23)nn1Cc1ccc(C(F)(F)F)cc1 [Compound 114, N-(5,6-difluoro-1H-indol-3-yl)-5-methyl-1-(4-(trifluoromethyl)benzyl)-1H-pyrazole-3-carboxamide] | 200 to 1000
30 | O=C(Nc1c[nH]c2cc(F)c(Cl)cc12)c1cnn(Cc2ccc(C(F)(F)F)cc2)c1 [Compound 141, N-(5-chloro-6-fluoro-1H-indol-3-yl)-1-(4-(trifluoromethyl)benzyl)-1H-pyrazole-4-carboxamide] | 40 to 200
31 | COc1cncc2c(NC(=O)c3cnn(Cc4ccc(C(F)(F)F)cc4)c3)c[nH]c12 [Compound 117, N-(7-methoxy-1H-pyrrolo[3,2-c]pyridin-3-yl)-1-(4-(trifluoromethyl)benzyl)-1H-pyrazole-4-carboxamide] | 5000 to 100000
